Assay results taken from patent US20240327364A1, “THERAPEUTIC TARGETING OF GPR68 TO INDUCE FERROPTOSIS” (University Of Maryland, Baltimore, priority 2023, published 2024).

Experiments:
[1] = molecular target: T1, ABL1-phosphorylated (Homo sapiens, UniProt P00519); test: KinomeScan; type: binding; details: read-out: % Control
T1 construct: purchased DiscoveRx

[2] = molecular target: T2, ERK2 (Homo sapiens, UniProt P28482); test: KinomeScan; type: binding; details: read-out: % Control
T2 construct: purchased DiscoveRx (Fremont, CA)
T2 sequence (P28482 whole entry): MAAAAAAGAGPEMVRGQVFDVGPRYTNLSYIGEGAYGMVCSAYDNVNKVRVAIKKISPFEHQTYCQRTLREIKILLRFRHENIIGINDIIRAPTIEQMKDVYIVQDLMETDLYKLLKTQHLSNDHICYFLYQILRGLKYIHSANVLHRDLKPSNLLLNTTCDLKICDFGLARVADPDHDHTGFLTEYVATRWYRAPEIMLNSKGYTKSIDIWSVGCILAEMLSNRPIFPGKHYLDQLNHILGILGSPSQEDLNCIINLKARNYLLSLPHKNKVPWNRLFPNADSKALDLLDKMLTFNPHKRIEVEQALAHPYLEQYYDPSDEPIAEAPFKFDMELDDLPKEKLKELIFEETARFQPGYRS

[3] = molecular target: T3, RIPK2 (Homo sapiens, UniProt O43353); test: KinomeScan; type: binding; details: read-out: % Control
T3 construct: purchased DiscoveRx (Fremont, CA)

[4] = molecular target: T4, sst4 (Homo sapiens, UniProt P31391); test: GPCR Profiler; type: cell-based
T4 construct: host or cells: Chem-1 cells with Gα15
T4 sequence (P31391 whole entry, species assumed): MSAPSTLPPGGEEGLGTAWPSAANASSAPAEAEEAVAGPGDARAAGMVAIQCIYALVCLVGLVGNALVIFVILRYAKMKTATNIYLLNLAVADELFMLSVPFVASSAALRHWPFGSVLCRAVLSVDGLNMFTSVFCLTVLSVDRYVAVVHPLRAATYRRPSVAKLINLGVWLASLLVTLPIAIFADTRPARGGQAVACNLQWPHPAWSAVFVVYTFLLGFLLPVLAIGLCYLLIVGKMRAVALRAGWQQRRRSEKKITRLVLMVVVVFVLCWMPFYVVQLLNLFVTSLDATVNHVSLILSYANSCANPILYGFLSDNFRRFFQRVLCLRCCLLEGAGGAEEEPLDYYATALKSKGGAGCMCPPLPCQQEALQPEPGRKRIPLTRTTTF

[5] = molecular target: T5, CDC2L1 (Homo sapiens, UniProt P21127); test: KinomeScan; type: binding; details: read-out: % Control
T5 construct: purchased DiscoveRx (KinomeScan service)

[6] = molecular target: T6, STK16 (Homo sapiens, UniProt O75716); test: KinomeScan; type: binding; details: read-out: % Control
T6 construct: purchased DiscoveRx (Fremont, CA)
T6 sequence (O75716 whole entry): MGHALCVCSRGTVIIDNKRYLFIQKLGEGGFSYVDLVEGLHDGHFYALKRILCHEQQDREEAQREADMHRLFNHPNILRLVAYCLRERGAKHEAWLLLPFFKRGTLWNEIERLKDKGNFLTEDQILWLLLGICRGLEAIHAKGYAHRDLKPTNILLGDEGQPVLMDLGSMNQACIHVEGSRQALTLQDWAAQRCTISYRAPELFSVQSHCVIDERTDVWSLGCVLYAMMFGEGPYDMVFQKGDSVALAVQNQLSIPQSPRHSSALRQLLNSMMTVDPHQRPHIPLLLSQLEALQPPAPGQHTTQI

[7] = molecular target: T7, PIP5K2C (Homo sapiens, UniProt Q8TBX8); test: KinomeScan; type: binding; details: read-out: % Control
T7 construct: purchased DiscoveRx (Fremont, CA)

[8] = molecular target: T8, MKK7 (Homo sapiens, UniProt O14733); test: KinomeScan; type: binding; details: read-out: % Control
T8 construct: purchased DiscoveRx
T8 sequence (O14733 whole entry): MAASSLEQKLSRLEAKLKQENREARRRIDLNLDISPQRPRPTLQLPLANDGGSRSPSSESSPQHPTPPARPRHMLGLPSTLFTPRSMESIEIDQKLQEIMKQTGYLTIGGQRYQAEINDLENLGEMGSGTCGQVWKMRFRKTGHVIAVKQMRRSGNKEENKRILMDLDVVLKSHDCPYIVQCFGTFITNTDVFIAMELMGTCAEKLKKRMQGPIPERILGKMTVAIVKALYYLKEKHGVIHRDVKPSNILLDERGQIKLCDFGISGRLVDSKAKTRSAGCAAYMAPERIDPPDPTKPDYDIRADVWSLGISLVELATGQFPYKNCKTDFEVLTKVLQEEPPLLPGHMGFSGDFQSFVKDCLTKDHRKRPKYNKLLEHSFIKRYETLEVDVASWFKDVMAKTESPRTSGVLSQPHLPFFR

[9] = molecular target: T9, DRAK2 (Homo sapiens, UniProt O94768); test: KinomeScan; type: binding; details: read-out: % Control
T9 construct: purchased DiscoveRx (Fremont, CA), KinomeScan service
T9 sequence (O94768 whole entry): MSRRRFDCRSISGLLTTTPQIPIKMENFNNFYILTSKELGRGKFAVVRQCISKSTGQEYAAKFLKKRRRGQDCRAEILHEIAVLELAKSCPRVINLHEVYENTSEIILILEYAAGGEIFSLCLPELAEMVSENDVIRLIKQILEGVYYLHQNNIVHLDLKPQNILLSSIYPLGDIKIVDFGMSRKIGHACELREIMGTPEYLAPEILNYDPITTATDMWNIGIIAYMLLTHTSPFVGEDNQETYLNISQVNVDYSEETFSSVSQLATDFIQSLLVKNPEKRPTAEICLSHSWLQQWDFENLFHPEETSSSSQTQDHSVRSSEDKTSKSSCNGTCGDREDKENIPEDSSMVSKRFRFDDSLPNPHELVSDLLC

[10] = tested on: 158 GPCRs; test: GPCR profiling panel (summary); type: cell-based; details: 10 μM
Procedure: GPCR profiling assays were performed by Millipore (St. Louis, MO) using in cells expressing Gα15, a promiscuous G protein that enhances GPCR coupling to downstream Ca2+ signaling pathways. KinomeScan was conducted by DiscoveRx (Fremont, CA).
Since GPCRs represent >30% of targets for FDA-approved small molecules and are known to modulate cell migration, activity against 158 GPCRs was assessed based on their chemical structures. GPCRs (158) were tested for agonist and antagonist activity at 10 μM. […] Chemical segregation analysis of zebrafish phenotype was conducted to further identify the inhibitory activity responsible for the zebrafish phenotype. […] The identities of the R groups in Formula A are shown below in Table 5.
To identify the target of OGM1, the molecule was profiled for binding in a panel of 442 kinases (KinomeScan™, DiscoveRx™) and assessed its activity against 158 GPCRs in a single-point assay in Chem-1 cells that uses a promiscuous Gα15 protein to trigger calcium flux (see Table 9 and Table 10, below). […] Table 9. KinomeScan (DiscoverRx) profiling of OGM1.

[11] = molecular target: T10, LKB1 (Homo sapiens, UniProt Q15831); test: KinomeScan; type: binding; details: read-out: % Control
T10 construct: purchased DiscoveRx

[12] = molecular target: T11, ETB (Homo sapiens, UniProt P24530); test: GPCR Profiler; type: cell-based
T11 construct: host or cells: Chem-1 cells expressing Gα15
T11 sequence (P24530 27-442): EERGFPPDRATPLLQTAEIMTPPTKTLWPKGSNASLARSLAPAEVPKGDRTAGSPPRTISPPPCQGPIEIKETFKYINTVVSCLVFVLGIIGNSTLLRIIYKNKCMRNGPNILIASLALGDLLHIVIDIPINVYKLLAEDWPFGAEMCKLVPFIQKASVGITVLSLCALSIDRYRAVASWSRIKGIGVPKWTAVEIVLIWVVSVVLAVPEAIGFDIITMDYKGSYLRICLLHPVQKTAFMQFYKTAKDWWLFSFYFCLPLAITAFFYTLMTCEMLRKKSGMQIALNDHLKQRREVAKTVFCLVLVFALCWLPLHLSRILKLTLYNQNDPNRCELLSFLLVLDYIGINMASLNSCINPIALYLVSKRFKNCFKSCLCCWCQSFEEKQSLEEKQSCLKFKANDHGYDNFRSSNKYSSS

[13] = molecular target: T12, MAP4K2 (Homo sapiens, UniProt Q12851); test: KinomeScan; type: binding; details: read-out: % Control
T12 construct: purchased DiscoveRx (Fremont, CA)

[14] = molecular target: CSNK2A1 (Homo sapiens, UniProt P68400); test: KinomeScan; type: binding; details: read-out: % Control
[15] = molecular target: T13, AMPK-alpha2 (Homo sapiens, UniProt P54646); test: KinomeScan; type: binding; details: read-out: % Control
T13 construct: purchased DiscoveRx (Fremont, CA)

[16] = molecular target: T14, MC4 (Homo sapiens, UniProt P32245); test: GPCR Profiler; type: cell-based
T14 construct: host or cells: Chem-1 cells with promiscuous Gα15
T14 sequence (P32245 whole entry): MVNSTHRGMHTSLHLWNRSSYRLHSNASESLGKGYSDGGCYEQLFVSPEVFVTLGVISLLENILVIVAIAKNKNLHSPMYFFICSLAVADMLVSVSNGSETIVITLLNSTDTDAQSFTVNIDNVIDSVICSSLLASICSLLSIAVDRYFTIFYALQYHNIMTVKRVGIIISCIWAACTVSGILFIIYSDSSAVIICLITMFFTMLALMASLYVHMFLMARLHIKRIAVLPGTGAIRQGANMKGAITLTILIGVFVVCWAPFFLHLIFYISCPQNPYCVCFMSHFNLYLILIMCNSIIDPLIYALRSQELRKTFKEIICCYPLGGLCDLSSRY

[17] = molecular target: T15, GPR91 (Homo sapiens, UniProt Q9BXA5); test: GPCR Profiler; type: cell-based
T15 construct: host or cells: Chem-1 cells with promiscuous Gα15
T15 sequence (Q9BXA5 whole entry, species assumed): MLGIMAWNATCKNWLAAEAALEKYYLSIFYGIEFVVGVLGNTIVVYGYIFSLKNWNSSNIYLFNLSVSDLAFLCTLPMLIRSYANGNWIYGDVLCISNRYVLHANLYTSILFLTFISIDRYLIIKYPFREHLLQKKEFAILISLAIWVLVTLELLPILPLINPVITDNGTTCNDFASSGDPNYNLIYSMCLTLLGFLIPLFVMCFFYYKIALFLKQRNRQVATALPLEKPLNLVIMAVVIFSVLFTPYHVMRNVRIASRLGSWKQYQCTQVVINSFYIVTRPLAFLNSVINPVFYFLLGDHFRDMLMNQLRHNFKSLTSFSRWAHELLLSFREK

[18] = molecular target: T16, MYO3A (Homo sapiens, UniProt Q8NEV4); test: KinomeScan; type: binding; details: read-out: % Control
T16 construct: purchased DiscoveRx
T16 sequence (Q8NEV4 whole entry): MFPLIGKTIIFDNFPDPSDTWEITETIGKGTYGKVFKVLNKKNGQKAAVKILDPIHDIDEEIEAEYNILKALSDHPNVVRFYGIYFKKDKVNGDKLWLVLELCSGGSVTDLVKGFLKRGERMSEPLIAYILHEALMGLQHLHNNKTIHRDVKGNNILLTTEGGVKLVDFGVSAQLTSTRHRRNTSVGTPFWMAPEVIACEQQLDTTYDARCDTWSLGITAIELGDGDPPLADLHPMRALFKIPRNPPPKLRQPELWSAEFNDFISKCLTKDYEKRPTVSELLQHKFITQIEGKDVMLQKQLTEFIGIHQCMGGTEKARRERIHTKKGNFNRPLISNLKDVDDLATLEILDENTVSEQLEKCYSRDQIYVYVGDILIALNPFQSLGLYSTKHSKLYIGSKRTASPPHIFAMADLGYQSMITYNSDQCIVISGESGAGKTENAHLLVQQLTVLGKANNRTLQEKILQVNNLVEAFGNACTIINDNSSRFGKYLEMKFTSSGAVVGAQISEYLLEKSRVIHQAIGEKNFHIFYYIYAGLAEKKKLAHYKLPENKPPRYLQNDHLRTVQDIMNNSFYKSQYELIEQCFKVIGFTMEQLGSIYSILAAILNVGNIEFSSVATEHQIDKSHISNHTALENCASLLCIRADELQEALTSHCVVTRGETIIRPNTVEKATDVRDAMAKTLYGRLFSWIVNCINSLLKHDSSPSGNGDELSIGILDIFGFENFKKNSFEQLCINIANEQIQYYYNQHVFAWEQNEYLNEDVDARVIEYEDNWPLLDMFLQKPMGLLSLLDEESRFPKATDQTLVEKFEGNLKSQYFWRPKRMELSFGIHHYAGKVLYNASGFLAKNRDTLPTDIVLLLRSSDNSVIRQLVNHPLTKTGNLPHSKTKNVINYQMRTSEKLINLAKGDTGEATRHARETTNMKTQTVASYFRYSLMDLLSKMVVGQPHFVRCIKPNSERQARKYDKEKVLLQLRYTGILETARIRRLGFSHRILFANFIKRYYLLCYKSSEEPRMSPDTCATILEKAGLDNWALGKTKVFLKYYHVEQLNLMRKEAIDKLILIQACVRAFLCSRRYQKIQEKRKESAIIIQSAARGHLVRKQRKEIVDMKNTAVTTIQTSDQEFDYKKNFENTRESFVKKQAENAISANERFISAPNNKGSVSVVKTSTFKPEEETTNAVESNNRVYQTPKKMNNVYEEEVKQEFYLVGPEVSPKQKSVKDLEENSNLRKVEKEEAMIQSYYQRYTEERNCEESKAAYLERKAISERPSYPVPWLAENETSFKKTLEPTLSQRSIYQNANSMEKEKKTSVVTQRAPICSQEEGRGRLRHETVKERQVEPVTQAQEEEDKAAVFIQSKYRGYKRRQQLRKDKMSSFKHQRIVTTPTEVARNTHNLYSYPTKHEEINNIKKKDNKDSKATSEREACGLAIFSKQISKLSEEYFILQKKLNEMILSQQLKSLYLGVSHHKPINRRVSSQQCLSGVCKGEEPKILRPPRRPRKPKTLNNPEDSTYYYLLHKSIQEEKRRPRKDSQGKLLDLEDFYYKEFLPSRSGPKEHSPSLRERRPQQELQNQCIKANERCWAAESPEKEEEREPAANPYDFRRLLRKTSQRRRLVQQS

[19] = tested on: A549; test: Clonogenicity (crystal violet); type: cell-based; details: 8 days
Procedure: A549 lung cancer cells were plated at 300 cells per well in a 6-well plate and on the next day were treated with increasing concentrations of OGM2 for 8 days. The plate was fixed with formalin and stained with crystal violet. See FIG. 27B for results at the indicated concentrations.

[20] = tested on: U87; test: Immunogenic cell death markers (CRT externalization, ATP secretion); type: cell-based, human
Procedure: OGM2 treatment of […] increases makers of immunogenic cell death (ICD, such as release of ATP into the extracellular environment ([…]) and calreticulin (CRT) externalization (FIG. 94B and FIG. 94C). Extracellular ATP content was assessed using the Enliten Atp Assay System (PROMEGA) (FIG. 94A). Calreticulin (CRT) externalization 3- and 6-hours post-treatment (see FIG. 94B and FIG. 94C) in U87 cells was assessed using immunofluorescence analysis using polyclonal antibody against calreticulin (Invitrogen™). Immunogenic cell death (ICD) is defined by expression or release of damage-associated molecular patterns (DAMPs), including extracellular ATP release and calreticulin externalization, which stimulate antitumor immune response, which in turn contributes to long-lasting protective antitumor immunity. […]
For the CRT externalization assay, U87 cells were seeded on 96-well plate, then treated with DMSO, […] (DOX), […] and […] (shown as OGM in the figures). […] Cells labelled with CRT were counted automatically with Lionheart™ automated microscope and % of CRT+ cells calculated. […]
For the ATP secretion assay, U87 cells were seeded on 96-well plate, then treated with DMSO, […] (DOX), […] and […] (OGM). At 6 hours, extracellular ATP levels were measured using the ENLITEN ATP Assay (Promega™). […]

T1 sequence (P00519 242-493 limits assumed): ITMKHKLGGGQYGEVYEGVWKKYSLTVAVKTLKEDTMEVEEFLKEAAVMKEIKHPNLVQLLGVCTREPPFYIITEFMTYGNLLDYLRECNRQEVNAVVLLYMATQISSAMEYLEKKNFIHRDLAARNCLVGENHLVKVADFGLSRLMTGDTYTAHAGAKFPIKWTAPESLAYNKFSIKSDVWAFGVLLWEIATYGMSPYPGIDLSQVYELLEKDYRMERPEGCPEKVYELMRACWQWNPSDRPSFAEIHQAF

## CCc1ccc2c(c1)C1(NN=C(c3cccc4ccccc34)S1)C(=O)N2 (stereo not shown) [OGM1, 5-ethyl-5′-naphthalen-1-ylspiro[1H-indole-3,2′-3H-1,3,4-thiadiazole]-2-one]
[1]
  remaining binding at 10 µM: 93%
[2]
  remaining binding at 10 µM: 77%
[3]
  remaining binding at 10 µM: 100%
[4]; 10 uM
  Antagonism: −2.6
[4]; 12.5 uM
  Agonism: −1.1
[5]
  remaining binding at 10 µM: 92%
[6]
  remaining binding at 10 µM: 88%
[7]
  remaining binding at 10 µM: 100%
[8]
  remaining binding at 10 µM: 99%
[9]
  remaining binding at 10 µM: 100%
[10]
  GPCRs significantly inhibited: significantly inhibited only the lysophosphatidic acid receptor 1 (LPAR1), and extracellular proton-sensing GPR68/OGR1
[11]
  remaining binding at 10 µM: 78%
[12]; 10 uM
  Antagonism: −1.6
[12]; 12.5 uM
  Agonism: 9.1
[13]
  remaining binding at 10 µM: 83%
[14]
  remaining binding at 10 µM: 96%
[15]
  remaining binding at 10 µM: 100%
[16]; 10 uM
  Antagonism: −5.4
[16]; 12.5 uM
  Agonism: −0.3
[17]; 10 uM
  Antagonism: −5.4
[17]; 12.5 uM
  Agonism: 1.2
[18]
  remaining binding at 10 µM: 95%

## CCc1ccc2c(c1)C1(NN=C(c3ccccc3)S1)C(=O)N2 (stereo not shown) [OGM2]
[19]
  clonogenicity: reduced the clonogenicity of lung cancer cells
[20]; 3 hours of treatment
  externalization of CRT: significant externalization of CRT
[20]; 6 hours
  secretion of ATP: secretion of ATP
